Measurements taken from paper PMC3878228 (BMC Plant Biology, 2013).
Residue numbers refer to the chain shown, from its start. “Also recorded” adds a separate entry of the source. One block for each molecule: values may come before it.

Columns and labels:
[1] = 200 μL liquid medium with five pre-germinated Ler seedlings (half-strength Murashige and Skoog, 1% sucrose, MES); settings: Arabidopsis thaliana (Ler), 22°C, up to 48 hrs
[2] = 200 μL medium with five pre-germinated Arabidopsis (Ler) seedlings; settings: 22°C
[3] = system: primary roots / root meristems (RMs) of Ler seedlings; assay: In vitro root assay in Ler seedlings; format: in vivo, Arabidopsis; settings: for Concentration at which the peptide was active in the root assay (primary root length): Ler seedlings, 8-d inoculation, tested at 10 nM, 30 nM, 100 nM, 1 μM
Method: (§1) Similarly, in vitro root assays were performed in Ler and clv2-1 (in Ler background) seedlings.
To evaluate activities of above-mentioned synthetic peptides with various N-terminal extensions, we performed in vitro root assays using Ler seedlings. The lengths of primary roots were measured after 8-d inoculations with either CLV3p12, L-CLV3p13, EEL-CLV3p15, HEEL-CLV3p16 or LHEEL-CLV3p17 at concentrations of 10 nM, 30 nM, 100 nM, or 1 μM (Figure 4).
(§2) Seeds of clv1-1, clv2-1 and clv3-2 (all in Ler background), Col-0 and Ler were gas-sterilized as reported previously, and imbibed in sterilized distilled water at 4°C in dark for 2 days before plating. In vitro root and SAM assays were performed as described.

[4] = system: shoot apical meristems (SAMs) of clv3-2 seedlings; assay: In vitro SAM assay in clv3-2 seedlings; format: in vivo, Arabidopsis; settings: for Sizes of SAMs of clv3-2 seedlings after treatment: 1 μM fusion protein, 8 days, 8-d-old clv3-2 seedlings, n = 8, P < 0.01 Student's t-test
Method: (§3) In vitro activity assays of the TH-ProCLV3 fusion protein in SAMs were performed using clv3-2 and clv1-1 (both in Ler background) mutants of Arabidopsis, as described previously.
as §2

CLV1 = settings: tobacco BY-2 cells; cited from earlier work
Source text: (§4) CLV3 is one of the well-studied peptide hormones in plants. The CLV3 gene encodes a 96-AA secretory protein that functions in a feedback regulation loop to restrict the number of stem cells in SAMs by repressing the expression of the WUSCHEL (WUS) transcription factor [16, 21]. […] CLV3 sh ...

[5] = system: shoot and root meristems (RMs); settings: synthetic peptides corresponding to the CLE motif; cited from earlier work
Source text: as §4

[6] = system: shoot apical meristems (SAMs) of clv1-1 seedlings; assay: In vitro SAM assay in clv1-1 seedlings; format: in vivo, Arabidopsis; settings: 1 μM fusion protein, 8-d-old clv1-1 seedlings, n = 8
Method: as §3
The commonly known subtilase recognition site is Lys/Arg-Arg. Although in most CLE members of Arabidopsis the residue located before the conserved Arg of the 12-AA CLE motif is Lys (Additional file 3), for CLV3 the residue is Leu. We examined if a Leu69Lys substitution hampered the activity of the fusion protein. TH-ProCLV3Leu69Lys was produced in E. coli and applied to clv3-2 seedlings in vitro.
as §2

[7] = system: roots / root meristems (RMs) of clv2-1 seedlings; assay: In vitro root assay in clv2-1 seedlings; format: in vivo, Arabidopsis; settings: 1 μM TH-ProCLV3, 8-d-old clv2-1 seedlings, n = 8
Method: as §1, §2

WUS expression = assay: qRT-PCR of WUS expression in shoot apices of clv3-2 seedlings; format: in vivo, Arabidopsis; settings: 8-d-old clv3-2 seedlings, 1 μM fusion protein in liquid medium, normalised to EIF4A1, 3 independent biological repeats
Method: To address if these fusion proteins are able to repress the WUS expression in SAMs, qRT-PCR analyses were performed with cDNAs from shoot apices after treatments with various fusion proteins. […] In contrast, the expression level of WUS in the TH-ProCLV3Leu69Ala-treated clv3-2 seedlings was only about 50% of the untreated ones (Figure 5F).
Total RNA was extracted using a Plant Total RNA Isolation Kit (TIANGEN, Beijing, China) from approximately 30 shoot apices excised from 8-d-old seedlings cultured in fusion protein-containing liquid media, and then reverse transcribed to cDNA with the First Strand cDNA Synthesis Kit ReverTra Ace-α (TOYOBO, Japan). qRT–PCR was performed in a Rotor-Gene 3000 thermocycler (Corbett, Australia) with the SYBR Premix ExTaq II kit (TaKaRa, Dalian, China), and the relative expression levels of the WUS [GenBank: NM_127349.3] were normalized against the internal control EIF4A1 [GenBank: NM_001084679.1] and calculated using the Rotor-Gene 6 software v 6.0 (Corbett, Australia) according to the 2^-∆∆CT method. Primer pairs of 5’-[…]-3’ and 5’-[…] -3’, and 5’-TTCTCTGCGACAATGCCTC-3’ and 5’-GCTTCCAGTCTTCTTTC TCCAC-3’ were used to amplify WUS and EIF4A1, respectively.

fragment found [1]: MMMMKMESEWVGANGEAEKAKTKGLGLHEEK
Molecule: Trx-His-HAHVQGLSNRKMMMMMKMESEWVGANGEAEKAKTKGLGLHEEKRTVPSGPDPLHHHVNPPRQPRNNFQLP

cleaved bond ([2]; up to 48 hrs): K38-Met39, major
Molecule: Trx-His-HAHVQGLSNRKMMMMKMESEWVGANGEAEKAKTKGLGLHEELRTVPSGPDPLHHHVNPPRQPRNNFQLP

cleaved bond ([2]; up to 3 d): H-H81
Molecule: LHEEARTVPSGPDPLHH

Molecule: LRTVPSGPDPLHH
cleaved bond ([2]; up to 3 d): L69-R70; also recorded: R70-T71; also recorded: H-H81

cleaved bond ([2]; up to 3 d): R70-T71; also recorded: H-H81
Molecule: RTVPSGPDPLHH

Molecule: EELRTVPSGPDPLHH [EEL-CLV3p15, CLV3p12 with additional 3 N-terminal residues]
Concentration at which the peptide was active in the root assay (primary root length) ([3]; n = 8): 100 nM

Molecule: LHEELRTVPSGPDPLHH
cleaved bond ([2]; up to 3 d): Leu69-Arg70, 3 d; also recorded: Arg70-Thr71, 3 d; also recorded: H-H81, first_seen, 2 d

cleaved bond ([2]; up to 3 d): Arg70-Thr71
Molecule: HEELRTVPSGPDPLHH

Molecule: Trx-His-HAHVQGLSNRKMMMMMKMESEWVGANGEAEKAKTKGLGLHEEARTVPSGPDPLHHHVNPPRQPRNNFQLP
fragment found [1]: CLV3p12 (RTVPSGPDPLHH); also recorded: CLV3p13 (RTVPSGPDPLHHH)

cleaved bond ([2]; up to 3 d): Met-Arg, 3 d
Molecule: FNESMRLSPGGPDPRHH
fragment found ([2]; up to 3 d): FNESMRLSPGGPDPRH; also recorded: FNESMRLSPGGPDPR; also recorded: FNESMRLSPGGPDP; also recorded: SMRLSPGGPDPR; also recorded: RLSPGGPDPR; also recorded: LSPGGPDPRHH; also recorded: SPGGPDPRHH; also recorded: SPGGPDPR

Molecule: MRLSPGGPDPRHH [M-CLE1p13, synthesized CLE1 peptide with 1 N-terminal flanking residue]
Fold less active than CLE1p12 in restricting the sizes of SAMs ([4]; clv3-2 seedlings, 8-d incubation, 10 nM to 10 μM peptide, n = 16): about 100 fold

Molecule: Trx-His-HAHVQGLSNRKMMMMMKMESEWVGANGEAEKAKTKGLGLHEELRTVPSGPDPLHHHVNPPRQPRNNFQLP
fragment found [1]: RTVPSGPDPLHH (CLV3p12); also recorded: RTVPSGPDPLHHH (CLV3p13)

Molecule: RLSPGGPDPRHH
fragment found ([2]; up to 3 d): RLSPGGPDPRH; also recorded: RLSPGGPDPR; also recorded: LSPGGPDPRHH; also recorded: SPGGPDPRHH; also recorded: SPGGPDPR

Molecule: LHEELRTVPSGPDPLHH [LHEEL-CLV3p17, CLV3p12 with additional 5 N-terminal residues]
Concentration at which the peptide was active in the root assay (primary root length) ([3]; n = 8): 10 nM

Molecule: RTVPSGPDPLHH [CLV3p12, chemically synthesized 12-AA CLV3 peptide corresponding to the CLE motif]
Concentration at which the peptide was active in the root assay (primary root length) ([3]; n = 8): 10 nM
Interaction with CLV1 (CLV1): Direct interaction
Function in promoting stem cell differentiation in vitro [5]: functional in promoting stem cell differentiation in both shoot and root meristems

cleaved bond ([2]; up to 3 d): H-H81
Molecule: EELRTVPSGPDPLHH

B1: TH-ProCLV3: CLV3 proprotein without signal peptide, N-terminal Trx and His tags, produced in E. coli, 23.8 kD (protein, UniProt Q9XF04 22-96, looked up)
pro-form: SDLTQAHAHVQGLSNRKMMMMKMESEWVGANGEAEKAKTKGLGLHEELRTVPSGPDPLHHHVNPPRQPRNNFQLP
modifications: pro-form N-terminal thioredoxin and His tags
notes: CLV3 proprotein without signal peptide, N-terminal Trx and His tags, produced in E. coli, 23.8 kD
Sizes of SAMs of clv3-2 seedlings after treatment [4]: significant reduced sizes of SAMs
Sizes of SAMs of clv1-1 seedlings after treatment [6]: no evident reduction; also recorded: no significant differences
Root growth of Ler seedlings ([3]; 1 μM TH-ProCLV3, 8-d-old Ler seedlings, n = 8): inhibited greatly
Root meristem (RM) state in Ler, microscopic examination ([3]; 1 μM TH-ProCLV3, Ler seedlings): termination of RMs in Ler
Root growth of clv2-1 seedlings [7]: no evident growth inhibition
Expression level of WUS in shoot apices relative to non-treated clv3-2 seedlings (WUS expression): about 10%

B2: TH-ProCLV3Leu69Ala: TH-ProCLV3 fusion protein with Leu69Ala substitution, produced in E. coli (protein, UniProt Q9XF04 22-96, looked up, variant L69A)
pro-form: B1 pro-form with L48A
modifications: pro-form N-terminal thioredoxin and His tags
notes: TH-ProCLV3 fusion protein with Leu69Ala substitution, produced in E. coli
Sizes of SAMs of clv3-2 seedlings after treatment [4]: significantly larger than those treated with TH-ProCLV3
Sizes of SAMs of clv1-1 seedlings after treatment [6]: no significant differences
Expression level of WUS in shoot apices relative to non-treated clv3-2 seedlings (WUS expression): about 50%

B3: TH-ProCLV3Leu69Lys: TH-ProCLV3 fusion protein with Leu69Lys substitution, produced in E. coli (protein, UniProt Q9XF04 22-96, looked up, variant L69K)
pro-form: B1 pro-form with L48K
modifications: pro-form N-terminal thioredoxin and His tags
notes: TH-ProCLV3 fusion protein with Leu69Lys substitution, produced in E. coli
Sizes of SAMs of clv3-2 seedlings after treatment [4]: no significant difference
Sizes of SAMs of clv1-1 seedlings after treatment [6]: no significant differences
